Measured values from PubChem BioAssay AID1259407 (Chemical Carcinogenesis Research Information System (CCRIS), 2018).
Calls of active or inactive are those of the source. No rule for the calls is given here.

Test system: CCRIS mutagenicity, Ames/micronucleus/aberration tests
Assay: CCRIS mutagenicity studies
[1] = Test System: AMES SALMONELLA TYPHIMURIUM, Strain/Indicator: TA100, Metabolic Activation: NONE, Method: PREINCUBATION

**Q.** Which results are given for `CC(O)CN(C)N=O` (configuration not stated)?
**A.** mutagenic call (Test System: AMES SALMONELLA TYPHIMURIUM, Strain/Indicator: TA100, Metabolic Activation: HAMSTER, LIVER, S-9, 3-METHYLCHOLANTHRENE, Method: PREINCUBATION): active; positive; mutagenic call (Test System: AMES SALMONELLA TYPHIMURIUM, Strain/Indicator: TA100, Metabolic Activation: HAMSTER, LIVER, S-9, PHENOBARBITAL, Method: PREINCUBATION): active; positive; mutagenic call (Test System: AMES SALMONELLA TYPHIMURIUM, Strain/Indicator: TA100, Metabolic Activation: HAMSTER, LIVER, S-9, Method: PREINCUBATION): active; positive; mutagenic call (Test System: AMES SALMONELLA TYPHIMURIUM, Strain/Indicator: TA100, Metabolic Activation: HUMAN, LIVER, S-9, Method: PREINCUBATION): active; positive; mutagenic call (Test System: AMES SALMONELLA TYPHIMURIUM, Strain/Indicator: TA100, Metabolic Activation: MONKEY, LIVER, S-9, Method: PREINCUBATION): active; positive; mutagenic call (Test System: AMES SALMONELLA TYPHIMURIUM, Strain/Indicator: TA100, Metabolic Activation: MOUSE, LIVER, S-9, 3-METHYLCHOLANTHRENE, Method: PREINCUBATION): active; positive; mutagenic call (Test System: AMES SALMONELLA TYPHIMURIUM, Strain/Indicator: TA100, Metabolic Activation: MOUSE, LIVER, S-9, PHENOBARBITAL, Method: PREINCUBATION): active; positive; mutagenic call (Test System: AMES SALMONELLA TYPHIMURIUM, Strain/Indicator: TA100, Metabolic Activation: MOUSE, LIVER, S-9, Method: PREINCUBATION): active; positive; mutagenic call [1]: inactive; negative; mutagenic call (Test System: AMES SALMONELLA TYPHIMURIUM, Strain/Indicator: TA100, Metabolic Activation: RABBIT, LIVER, S-9, Method: PREINCUBATION): active; positive; mutagenic call (Test System: AMES SALMONELLA TYPHIMURIUM, Strain/Indicator: TA100, Metabolic Activation: RAT, LIVER, CYTOSOL, PCB, Method: PREINCUBATION): inactive; negative; mutagenic call (Test System: AMES SALMONELLA TYPHIMURIUM, Strain/Indicator: TA100, Metabolic Activation: RAT, LIVER, MICROSOMES AND CYTOSOL, PCB, Method: PREINCUBATION): active; positive; mutagenic call (Test System: AMES SALMONELLA TYPHIMURIUM, Strain/Indicator: TA100, Metabolic Activation: RAT, LIVER, MICROSOMES AND G6PDH, PCB, Method: PREINCUBATION): active; positive; mutagenic call (Test System: AMES SALMONELLA TYPHIMURIUM, Strain/Indicator: TA100, Metabolic Activation: RAT, LIVER, MICROSOMES, PCB, Method: PREINCUBATION): active; positive; mutagenic call (Test System: AMES SALMONELLA TYPHIMURIUM, Strain/Indicator: TA100, Metabolic Activation: RAT, LIVER, S-9 (HEATED), PCB, Method: PREINCUBATION): inactive; negative; mutagenic call (Test System: AMES SALMONELLA TYPHIMURIUM, Strain/Indicator: TA100, Metabolic Activation: RAT, LIVER, S-9, 3-METHYLCHOLANTHRENE, Method: PREINCUBATION): active; positive; mutagenic call (Test System: AMES SALMONELLA TYPHIMURIUM, Strain/Indicator: TA100, Metabolic Activation: RAT, LIVER, S-9, PCB, Method: PREINCUBATION): active; positive; mutagenic call (Test System: AMES SALMONELLA TYPHIMURIUM, Strain/Indicator: TA100, Metabolic Activation: RAT, LIVER, S-9, PHENOBARBITAL, Method: PREINCUBATION): active; positive; mutagenic call (Test System: AMES SALMONELLA TYPHIMURIUM, Strain/Indicator: TA100, Metabolic Activation: RAT, LIVER, S-9, Method: PREINCUBATION): active; positive; mutagenic call (Test System: AMES SALMONELLA TYPHIMURIUM, Strain/Indicator: TA100, Metabolic Activation: RAT, LIVER, S-9 WITHOUT NADP+, PCB, Method: PREINCUBATION): inactive; negative; mutagenic call (Test System: AMES SALMONELLA TYPHIMURIUM, Strain/Indicator: TA100, Metabolic Activation: TOBACCO CELLS, Method: PREINCUBATION): inactive; negative; mutagenic call (Test System: AMES SALMONELLA TYPHIMURIUM, Strain/Indicator: TA100, Method: PREINCUBATION): active; positive; mutagenic call (Test System: CHINESE HAMSTER V-79, Strain/Indicator: V-79/OUABAIN, Metabolic Activation: HAMSTER, HEPATOCYTES, Method: CELL-MEDIATED): active; positive

**Q.** With `Nc1cccc(O)c1` as the compound, how does the mutagenic call (Test System: AMES SALMONELLA TYPHIMURIUM, Strain/Indicator: TA97, Metabolic Activation: HAMSTER, LIVER, S-9, AROCLOR 1254 (10%), Method: PREINCUBATION) read?
**A.** inactive; negative

**Q.** And the mutagenic call (Test System: AMES SALMONELLA TYPHIMURIUM, Strain/Indicator: TA97, Metabolic Activation: NONE, Method: PREINCUBATION)?
**A.** inactive; negative

**Q.** What about the mutagenic call (Test System: AMES SALMONELLA TYPHIMURIUM, Strain/Indicator: TA97, Metabolic Activation: RAT, LIVER, S-9, AROCLOR 1254 (10%), Method: PREINCUBATION) of the same compound?
**A.** inactive; negative

**Q.** And the mutagenic call (Test System: AMES SALMONELLA TYPHIMURIUM, Strain/Indicator: TA98, Metabolic Activation: HAMSTER, LIVER, S-9, AROCLOR 1254 (5 OR 10%), Method: PREINCUBATION)?
**A.** active; positive

**Q.** What about the mutagenic call (Test System: AMES SALMONELLA TYPHIMURIUM, Strain/Indicator: TA98, Metabolic Activation: HAMSTER, LIVER, S-9, AROCLOR 1254 (30%), Method: PREINCUBATION) of the same compound?
**A.** inactive; negative

**Q.** What about the mutagenic call (Test System: AMES SALMONELLA TYPHIMURIUM, Strain/Indicator: TA98, Metabolic Activation: NONE) of the same compound?
**A.** inactive; negative

**Q.** And the mutagenic call (Test System: AMES SALMONELLA TYPHIMURIUM, Strain/Indicator: TA98, Metabolic Activation: NONE, Method: PREINCUBATION)?
**A.** inactive; negative

**Q.** And the mutagenic call (Test System: AMES SALMONELLA TYPHIMURIUM, Strain/Indicator: TA98, Metabolic Activation: RAT, LIVER, S-9, AROCLOR 1254 (5, 10 OR 30%), Method: PREINCUBATION)?
**A.** inactive; negative

**Q.** What about the mutagenic call (Test System: AMES SALMONELLA TYPHIMURIUM, Strain/Indicator: TA98, Metabolic Activation: S-9) of the same compound?
**A.** inactive; negative

**Q.** What about the mutagenic call (Test System: AMES SALMONELLA TYPHIMURIUM, Strain/Indicator: TA100, Metabolic Activation: HAMSTER, LIVER, S-9, AROCLOR 1254 (10%), Method: PREINCUBATION) of the same compound?
**A.** inactive; negative

**Q.** What about the mutagenic call [1] of the same compound?
**A.** inactive; negative

**Q.** What about the mutagenic call (Test System: AMES SALMONELLA TYPHIMURIUM, Strain/Indicator: TA100, Metabolic Activation: RAT, LIVER, S-9, AROCLOR 1254 (10%), Method: PREINCUBATION) of the same compound?
**A.** inactive; negative

**Q.** What about the mutagenic call (Test System: AMES SALMONELLA TYPHIMURIUM, Strain/Indicator: TA1535, Metabolic Activation: HAMSTER, LIVER, S-9, AROCLOR 1254 (10%), Method: PREINCUBATION) of the same compound?
**A.** inactive; negative

**Q.** What about the mutagenic call (Test System: AMES SALMONELLA TYPHIMURIUM, Strain/Indicator: TA1535, Metabolic Activation: NONE, Method: PREINCUBATION) of the same compound?
**A.** inactive; negative

**Q.** What about the mutagenic call (Test System: AMES SALMONELLA TYPHIMURIUM, Strain/Indicator: TA1535, Metabolic Activation: RAT, LIVER, S-9, AROCLOR 1254 (10%), Method: PREINCUBATION) of the same compound?
**A.** inactive; negative

**Q.** `c1ccc2c(c1)C1=c3c-2cc2cccc4ccc(c3c42)C2OC12` (configuration not stated) was tested. Which mutagenic call (Test System: AMES SALMONELLA TYPHIMURIUM, Strain/Indicator: TA100, Metabolic Activation: NONE, Method: STANDARD PLATE) did it give?
**A.** active; positive

**Q.** Which mutagenic call (Test System: AMES SALMONELLA TYPHIMURIUM, Strain/Indicator: TA97, Metabolic Activation: RAT, LIVER, S-9, AROCLOR 1254 (4 OR 10%), Method: STANDARD PLATE) does the source give for `CCOc1ccc(N)cc1N` here?
**A.** active; positive

**Q.** What about the mutagenic call (Test System: AMES SALMONELLA TYPHIMURIUM, Strain/Indicator: TA1537, Metabolic Activation: RAT, LIVER, S-9, AROCLOR 1254 (4 OR 10%), Method: STANDARD PLATE) of the same compound?
**A.** active; positive

**Q.** And the mutagenic call (Test System: AMES SALMONELLA TYPHIMURIUM, Strain/Indicator: TA1538, Metabolic Activation: RAT, LIVER, S-9, AROCLOR 1254 (4 OR 10%), Method: STANDARD PLATE)?
**A.** active; positive
